In publication PMC7306040, “Exploring the abundance of oleate hydratases in the genus Rhodococcus—discovery of novel enzymes with complementary substrate scope” (Applied Microbiology and Biotechnology, 2020):

Assays:
[1] = target: T1, RpOhy (DSM 20415) (Rhodococcus pyridinivorans, UniProt A0A7T7LF34); test: yellow colour of purified enzyme; oleic acid conversion with […] added FAD; type: binding; settings: 20 mM acetate pH 5, 25 °C, 500 uM oleic acid, 1% DMSO
T1 construct: gene INP59_15660; N-terminally His6-tagged, codon-optimised, pBAD/His A, E. coli TOP10; Ni-NTA and SEC; monomer, dimer and larger aggregates
T1 sequence (A0A7T7LF34 1-601): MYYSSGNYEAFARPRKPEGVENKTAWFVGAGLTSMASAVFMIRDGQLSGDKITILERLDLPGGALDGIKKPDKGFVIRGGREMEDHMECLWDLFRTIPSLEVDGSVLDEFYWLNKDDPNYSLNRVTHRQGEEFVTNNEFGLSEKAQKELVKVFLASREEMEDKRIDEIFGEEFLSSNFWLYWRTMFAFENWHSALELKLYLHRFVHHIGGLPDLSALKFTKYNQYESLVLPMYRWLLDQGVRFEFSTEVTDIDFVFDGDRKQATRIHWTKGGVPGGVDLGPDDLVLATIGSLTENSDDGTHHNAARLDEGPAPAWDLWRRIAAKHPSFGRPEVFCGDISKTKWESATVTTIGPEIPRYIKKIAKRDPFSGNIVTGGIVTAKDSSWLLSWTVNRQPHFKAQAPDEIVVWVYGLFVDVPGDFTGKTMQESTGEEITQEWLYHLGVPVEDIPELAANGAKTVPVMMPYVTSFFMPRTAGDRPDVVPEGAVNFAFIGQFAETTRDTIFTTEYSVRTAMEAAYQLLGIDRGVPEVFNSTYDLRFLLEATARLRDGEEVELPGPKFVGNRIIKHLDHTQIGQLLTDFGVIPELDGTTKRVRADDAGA

[2] = target: T1, RpOhy (DSM 20415); test: coupled assay with alcohol dehydrogenase ADH010, NADH at […] nm; type: biochemical; settings: apparent cooperative, Hill n 2.45 ± 0.47; 2 mM NAD+, 50 mM PIPES pH 6.5, 10% DMSO; read-out: K0.5

Km [2] [µM]	SMILES	yellow colour of purified enzyme; oleic acid conversion with 0-100 uM added FAD [1]
	Cc1cc2nc3c(=O)[nH]c(=O)nc-3n(C[C@H](O)[C@H](O)[C@H](O)COP(=O)(O)OP(=O)(O)OC[C@H]3O[C@@H](n4cnc5c(N)ncnc54)[C@H](O)[C@@H]3O)c2cc1C [FAD]	yellow colour indicating that the FAD cofactor was incorporated in the enzyme
720 ± 70	CCCCCCCC/C=C\CCCCCCCC(=O)O [compound 3, Oleic acid]	
